Assay results reported in patent US6589916B1, “Method and composition for treating and promoting the growth of plants” (Amvac Chemical Corporation, priority 1999, dated 2003).

What was measured:
[1] = four hours ultraviolet light from an arc; U.S. Pat. No. 2,835,625; cited from earlier work
[2] = tested on: live grass (Bermudagrass (Common, Midiron, and Ormond), Tifway II, Tifway 419, Tifdwarf, and Tifgreen 328 grasses); experiment: Methyldithiocarbamate trials: spray treatment of live golf course grass plots, leaf appearance scored; format: in vivo; set-up: key to score for appearance of the grass leaves: 0: burning of leaf tissue; 1: bronzing of leaf tissue; 2: burning of the tip of the leaf tissue; 3: No burning or change in color of the leaf tissue; 4: good greening of the leaf tissue; 5: excellent greening of the leaf tissue
Description: The effect of the application of methylammonium methyldithiocarbamate to live grass was determined in the following manner. Dilute aqueous solutions of three salts of the same dithiocarbamic acid derivative were prepared: methylammonium methyldithiocarbamate, sodium methyldithiocarbamate, and potassium methyldithiocarbamate. The solutions were prepared by mixing the dithiocarbamic acid derivative with water to achieve a concentration of between about 1.2 and 3.5% by weight.
Three plots of grass of substantially equal type, quality, color, and size were selected at each of several golf courses throughout the state of Florida. The grass at these courses consisted of one or a combination of Bermudagrass (Common, Midiron, and Ormond), Tifway II, Tifway 419, Tifdwarf, and Tifgreen 328 grasses. To each of these plots one of the methyldithiocarbamate salts were applied via an ordinary above-ground spraying system in an amount equivalent to between about 0.5 to 40 lbs of methyldithiocarbamate salt per acre of soil. All applications were watered in with 1/2 inch of water within 20 minutes of treatment, which moved the dithiocarbamic acid derivative into and slightly below the root zone of the grass.
The results of treating each plot with the methyldithiocarbamate salts were evaluated from 1 to 2 weeks after treatment by examining the appearance of the grass leaves. A score was assigned to each plot according to the following scale: 0=burning of leaf tissue; 1=bronzing of leaf tissue; 2=burning of the tip of the leaf tissue; 3=No burning or change in color of the leaf tissue; 4=good greening of the leaf tissue; 5=excellent greening of the leaf tissue. Where two values were assigned, the plot contained a substantial number of grass leaves of one score and a substantial number of the other score.

Morning Glory = conditions: stated in U.S. Pat. No. 2,766,554; cited from earlier work
[3] = 1. Grenelefe Resort, treated February 1998, evaluation 2 weeks after treatment
[4] = 1. Grenelefe Resort, treated January 1998, evaluation 2 weeks after treatment
[5] = 1. Grenelefe Resort, treated March 1998, evaluation 2 weeks after treatment
[6] = 2. Long Boat Key, treated April 1998, evaluation 1 week after treatment
[7] = 2. Long Boat Key, treated February 1998, evaluation 2 weeks after treatment
[8] = 2. Long Boat Key, treated March 1998, evaluation 2 weeks after treatment
[9] = 3. Indian River Club, treated April 1998, evaluation 1 week after treatment
[10] = 3. Indian River Club, treated March 1998, evaluation 2 weeks after treatment
[11] = 3. Indian River Club, treated May 1998, evaluation 1 week after treatment
[12] = 4. La Cita C.C., treated June 1998, evaluation 1 week after treatment
[13] = 4. La Cita C.C., treated March 1998, evaluation 1 week after treatment
[14] = 4. La Cita C.C., treated September 1998, evaluation 1 week after treatment
[15] = 5. Wellington C.C., treated April 1998, evaluation 2 weeks after treatment
[16] = 6. Dodgertown C.C., treated April 1998, evaluation 1 week after treatment
[17] = 6. Dodgertown C.C., treated May 1998, evaluation 1 week after treatment
[18] = 7. Westchester C.C., treated April 1998, evaluation 1 week after treatment
[19] = 8. President Club, treated July 1998, evaluation 1 week after treatment
[20] = 8. President Club, treated May 1998, evaluation 1 week after treatment
[21] = 9. Vero Beach C.C., treated June 1998, evaluation 1 week after treatment
[22] = 10. Admirals Cove, treated July 1998, evaluation 1 week after treatment
[23] = 11. Moorings C.C., treated August 1998, evaluation 1 week after treatment
[24] = 12. Hawks Nest C.C., treated August 1998, evaluation 1 week after treatment
[25] = 13. Woodmont C.C., treated June 1998, evaluation 1 week after treatment
[26] = 13. Woodmont C.C., treated September 1998, evaluation 1 week after treatment

| Compound | score for appearance of the grass leaves [2, 3] | score for appearance of the grass leaves [2, 4] | score for appearance of the grass leaves [2, 5] | score for appearance of the grass leaves [2, 6] | score for appearance of the grass leaves [2, 7] | score for appearance of the grass leaves [2, 8] | score for appearance of the grass leaves [2, 9] | score for appearance of the grass leaves [2, 10] | score for appearance of the grass leaves [2, 11] | score for appearance of the grass leaves [2, 12] | score for appearance of the grass leaves [2, 13] | score for appearance of the grass leaves [2, 14] | score for appearance of the grass leaves [2, 15] | score for appearance of the grass leaves [2, 16] | score for appearance of the grass leaves [2, 17] | score for appearance of the grass leaves [2, 18] | score for appearance of the grass leaves [2, 19] | score for appearance of the grass leaves [2, 20] | score for appearance of the grass leaves [2, 21] | score for appearance of the grass leaves [2, 22] | also measured |
| --- | --- | --- | --- | --- | --- | --- | --- | --- | --- | --- | --- | --- | --- | --- | --- | --- | --- | --- | --- | --- | --- |
| CC(C)OC(=O)SC(=S)N(C)C [isopropoxycarbonyl dimethyldithiocarbamate] | – | – | – | – | – | – | – | – | – | – | – | – | – | – | – | – | – | – | – | – | biological activity after ultraviolet light treatment [1]: without losing any biological activity |
| CNC(=S)[S-].[K+] [POTASSIUM, potassium methyldithiocarbamate] | 1 | 0 | 0-1 | 1-2 | 1 | 1-2 | 0-1 | 1 | 1-2 | 1 | 2 | 2 | 1 | 0 | 1-2 | 1 | 2-3 | 0 | 1 | 1-2 | score for appearance of the grass leaves [2, 23]: 1; score for appearance of the grass leaves [2, 24]: 0; score for appearance of the grass leaves [2, 25]: 1-2; score for appearance of the grass leaves [2, 26]: 2-3 |
| CN.CNC(=S)S [METHYL AMMONIUM, methylammonium methyldithiocarbamate] | 3-4 | 4 | 4 | 4 | 4 | 4 | 4 | 4 | 4 | 5 | 5 | 5 | 5 | 4 | 4 | 4 | 5 | 5 | 4-5 | 4 | score for appearance of the grass leaves [2, 23]: 5; score for appearance of the grass leaves [2, 24]: 5; score for appearance of the grass leaves [2, 25]: 5; score for appearance of the grass leaves [2, 26]: 5; appearance of the grass leaf tissue, in words ([2]; Grenelefe Resort, February): improved only marginally in color; appearance of the grass leaf tissue, summary in words ([2]; all treated areas of Table 2): either good or excellent greening of the leaf tissue; results compared with potassium methyldithiocarbamate ([2]; all trials of Table 2): far better results than the potassium methyldithiocarbamate; results compared with sodium methyldithiocarbamate ([2]; all trials of Table 2): better results than the sodium methyldithiocarbamate; eradication of Morning Glory (Morning Glory): excellent eradicator of Morning Glory |
| CNC(=S)[S-].[Na+] [SODIUM, sodium methyldithiocarbamate] | 3 | 3 | 3-4 | 3 | 2 | 3 | 3 | 3 | 3-4 | 3-4 | 4 | 4 | 3 | 3 | 3-4 | 3 | 4 | 4 | 3-4 | 3-4 | score for appearance of the grass leaves [2, 23]: 4; score for appearance of the grass leaves [2, 24]: 4; score for appearance of the grass leaves [2, 25]: 4; score for appearance of the grass leaves [2, 26]: 4 |
